Source: US20240124428A1, “HETEROCYCLIC INHIBITORS OF PCSK9” (CARDIO THERAPEUTICS PTY LTD, priority 2020, published 2024)

Assays:
Caco-2 cells = assay: Caco2 assay; format: in vitro ADME, human; details: 10 μM, 90 min
Procedure: Caco-2 cells are a human colon epithelial cancer cell line used as a model of human intestinal absorption of drugs and other compounds. The compounds were assessed for their oral suitability in this assay, as compounds with good oral bioavailability likely evade efflux by pumps. The permeability coefficient (Papp) denotes the permeability of the drug through a monolayer of cells. Transport is assessed in both directions (apical to basolateral (A-B) and basolateral to apical (B-A)) across the cell monolayer to enable an efflux ratio to be determined which provides an indicator as to whether a compound undergoes active efflux.
Caco-2 cells were removed from an incubator and the cell monolayer was washed with HBSS buffer before the Transepithelial/transendothelial electrical resistance (TEER) was measured at room temperature. The transport experiment was started by adding 10 μM solution of test compounds in HBSS buffer containing luciferase yellow to the apical side. A sample from the apical chamber was taken at t=0 min. The volumes of the apical and basal sides were 400 μL and 800 μL respectively. The apical and basolateral plates were incubated at 37° C. for 90 min. After 90 min, the apical plate was separated from the basolateral plate and an aliquot from the basolateral side was transferred to an opaque plate for the determination of lucifer yellow concentration at t=90 min. The luciferase yellow concentration of each sample was measured by fluorimetry using excitation and emission wavelengths of 485 nm and 535 nm, respectively. Samples from the donor and receiver chambers were diluted with 0.4% DMSO in HBSS then mixed with ACN and either osalmid or imipramine, which were used as an IS in preparation for analysis by LC-MS/MS. Samples were then assayed for their levels of test compounds using an UPLC-MS/MS-29(API6500+) or an LC-MS/MS-014(API4000) instrument operating in a positive electrospray ionisation mode.

CYP2D6 = molecular target: T1, CYP2D6 (Homo sapiens, UniProt P10635); assay: CYP inhibition assay, CYP2D6; format: in vitro ADME; details: probe Bufaralol (10 μM), human liver microsomes
T1 construct: using human liver microsomes; from tissue; host or cells: human liver microsomes
Procedure: (§1) In vitro CYP (cytochrome P450) enzyme inhibition studies predict a drug candidate's predisposition to inhibit cytochrome P450 enzymes. The cytochrome P450 (CYP) inhibition assay was run against CYP2D6 and CYP3A4 isoforms using human liver microsomes. For CYP2D6, the probe substrates was Bufaralol (10 μM) and the positive control was Quinidine (2.5 μM). Midazolam (5 μM) was chosen as the probe substrate for CYP3A4 and Ketocanazole (2.5 μM) was used as the positive control inhibitor. To increase the throughput of the assay, one concentration (10 μM) was tested. For analysis via LC-MS, internal standards of 1-OH-Bufuralol-maleate-[D9] for CYP2D6 and 1′-OH-Midazolam-13C3 for CYP3A4 were used.

[1] = Dedicated pharmacokinetic study, single oral dose; format: in vivo, C57BL/6 mice; details: mice, route and dose not given; for half-life: C57BL/6, mouse, plasma, intravenous, 0.4 mg/kg
[2] = HepG2 cytotoxicity (CellTiter-Glo); format: cell-based; details: human, HepG2 cells; 48 h of exposure
Procedure: HepG2 is a human hepatoma commonly used in drug metabolism and hepatotoxicity studies.
HepG2 cells were seeded at a density of 7000 or 8000 cells/well in a 96-well plate. Twenty to twenty four hours later, cells were treated with test compound for 48 hours in 3-fold serial dilutions with a top test concentration of 50 or 150 μM. After the incubation, CellTiter-Glo reagent was added directly to the wells. The plate was shaken for 2 or 5 mins on a plate shaker then incubated at room temperature for a further 10 mins. Subsequently, 100 μL of the above solution was transferred to a white flat bottom opaque 96 well plate (or opaque-walled clear bottom plates taped with a white bottom seal) and luminescence recorded on a plate reader.

[3] = Cassette pharmacokinetic study, intravenous; format: in vivo, C57BL/6 mice; details: mice, route not given (IV study 0.4 mg/kg); for Vd: male, C57BL/6, mouse, plasma, read-out: VSS
Procedure: Cassette dosing is a technique primarily used in drug discovery efforts in non-clinical studies to collect pharmacokinetic data from multiple drug candidates in a single experiment.
C57BL/6 mice (21-22 g, 6-8 weeks, male, purchased from Jihui Laboratory Animal Co. LTD) were allowed access to food and water ad libitum throughout the in-life phase of the study. Mice were dosed intravenously (IV) with a cassette of 0.4 mg/kg of test compounds in 5% DMAC, 5% Solutol HS15 and 90% saline. At designated time points, the animals were restrained manually, and ˜110 μL of blood/time point was collected into pre-cooled EDTA-K2 tubes via the facial vein. Blood samples were centrifuged at 4° C. (2000 g, 5 min) to obtain plasma within 15 min after sample collection. Plasma samples were stored at approximately −70° C. until analysis. Samples were assayed for their levels of test compounds by LC/MS/MS using a Triple Quadruple (6500+) system operating in a positive electrospray ionisation mode.
The PK parameters of half-life (T1/2) and area under the curve (AUC) of the compounds were assessed following a single intravenous (IV) injection (0.4 mg/kg) in mice (male, C57BL/6).

CYP3A4 = molecular target: T2, CYP3A4 (Homo sapiens, UniProt P08684); assay: CYP inhibition assay, CYP3A4; format: in vitro ADME; details: probe Midazolam (5 μM), human liver microsomes
T2 construct: using human liver microsomes; from tissue; host or cells: human liver microsomes
Procedure: as §1

[4] = molecular target: T3, binding between PCSK9 and the LDL receptor (Homo sapiens, UniProt Q8NBP7); assay: In vitro PCSK9-LDLR binding assay (CircuLex kit)
T3 construct: purchased CircuLex
Procedure: Compounds were assayed for their ability to inhibit the binding between PCSK9 and the LDL receptor using a CircuLex PCSK9-LDLR in vitro binding assay kit. The procedure employed the reagents and buffers included in the kit as follows. 88 μL of 1× reaction buffer was placed into each well. 5 μL of test compound in 20% DMSO was added into each well. 10 mM solutions of test compounds in DMSO were diluted by 3-fold series to give 6-point concentration curves. The compounds were then diluted 20-fold with the reaction buffer. To each well was then added 7 μL of His-tagged PCSK9 wild type solution (1000 ng/mL). The plate was then covered with a plate sealer and incubated at room temperature for 3 hours, shaking at 300 rpm on an orbital microplate shaker. The test solutions were washed 4 times with 350 μL wash buffer. One 100 μL of biotinylated anti-His-tag monoclonal antibody was added to each well. The plate was covered with a plate sealer, and incubated at room temperature for 1 h, shaking at 300 rpm. The test solutions were washed 4 times with 350 μL wash buffer. […] of HRP-conjugated streptavidin was added to each well. The plate was covered with a plate sealer, and incubated at room temperature for 20 min, shaking at 300 rpm. The test solutions were washed 4 times with 350 μL wash buffer. 100 μL of substrate reagent was added into each well. The plate was covered with a plate sealer, and incubated at room temperature for 15 min, shaking at 300 rpm. Finally, 100 μL of stop solution was added to each well in the same order as the previously added substrate reagent.
The results of the binding assay are shown in FIG. 3, reported as IC50 (μM).

T1 sequence (P10635 whole entry): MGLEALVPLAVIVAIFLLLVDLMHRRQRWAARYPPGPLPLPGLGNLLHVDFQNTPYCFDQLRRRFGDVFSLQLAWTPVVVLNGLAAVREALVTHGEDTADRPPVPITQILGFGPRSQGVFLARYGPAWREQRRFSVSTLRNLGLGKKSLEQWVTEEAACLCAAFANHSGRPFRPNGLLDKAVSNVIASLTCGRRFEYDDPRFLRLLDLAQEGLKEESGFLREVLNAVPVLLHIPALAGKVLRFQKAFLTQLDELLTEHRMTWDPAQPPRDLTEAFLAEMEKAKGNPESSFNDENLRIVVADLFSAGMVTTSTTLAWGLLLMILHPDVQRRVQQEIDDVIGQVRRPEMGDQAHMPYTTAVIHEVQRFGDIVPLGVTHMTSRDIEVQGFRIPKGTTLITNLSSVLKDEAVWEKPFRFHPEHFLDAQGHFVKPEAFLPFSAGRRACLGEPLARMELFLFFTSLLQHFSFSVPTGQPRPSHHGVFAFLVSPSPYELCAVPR
T3 sequence (Q8NBP7 153-692): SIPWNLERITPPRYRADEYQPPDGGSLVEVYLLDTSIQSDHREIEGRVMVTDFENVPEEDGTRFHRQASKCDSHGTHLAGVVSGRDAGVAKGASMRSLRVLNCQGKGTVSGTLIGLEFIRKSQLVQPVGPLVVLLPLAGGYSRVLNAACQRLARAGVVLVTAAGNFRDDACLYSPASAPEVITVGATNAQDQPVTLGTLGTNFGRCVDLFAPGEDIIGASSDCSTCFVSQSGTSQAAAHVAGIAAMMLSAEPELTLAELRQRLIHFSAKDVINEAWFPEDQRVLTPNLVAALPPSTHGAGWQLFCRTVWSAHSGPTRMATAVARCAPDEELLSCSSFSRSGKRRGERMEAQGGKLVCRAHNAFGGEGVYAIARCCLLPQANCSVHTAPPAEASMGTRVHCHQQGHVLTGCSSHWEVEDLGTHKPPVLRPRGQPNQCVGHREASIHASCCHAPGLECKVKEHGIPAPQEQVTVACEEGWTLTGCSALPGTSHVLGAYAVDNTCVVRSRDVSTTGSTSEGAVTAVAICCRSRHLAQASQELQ
T3 sequence (Q8NBP7 31-152 partner limits assumed): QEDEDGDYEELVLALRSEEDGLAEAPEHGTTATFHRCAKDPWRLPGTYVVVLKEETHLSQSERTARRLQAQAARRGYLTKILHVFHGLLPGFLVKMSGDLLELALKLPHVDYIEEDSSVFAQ
T2 sequence (P08684 whole entry): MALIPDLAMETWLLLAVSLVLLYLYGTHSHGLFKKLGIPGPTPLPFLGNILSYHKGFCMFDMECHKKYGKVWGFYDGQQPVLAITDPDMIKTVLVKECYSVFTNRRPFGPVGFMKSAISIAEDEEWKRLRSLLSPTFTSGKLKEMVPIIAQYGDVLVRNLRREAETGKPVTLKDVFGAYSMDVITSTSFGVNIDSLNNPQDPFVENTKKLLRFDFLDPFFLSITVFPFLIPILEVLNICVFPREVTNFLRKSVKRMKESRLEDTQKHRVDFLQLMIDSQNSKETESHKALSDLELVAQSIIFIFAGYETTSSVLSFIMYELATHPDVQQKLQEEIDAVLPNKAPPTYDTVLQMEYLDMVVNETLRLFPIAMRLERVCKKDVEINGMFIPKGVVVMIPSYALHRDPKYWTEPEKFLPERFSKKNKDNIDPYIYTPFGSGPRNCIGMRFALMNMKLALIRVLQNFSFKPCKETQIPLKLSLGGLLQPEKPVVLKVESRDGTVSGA

In the case of `Cc1ccc(-c2cc(CN3CCC(F)(F)[C@H](N)C3)cc(NC(=O)c3cc(-c4ccccc4)ccn3)c2)cn1` [Compound 122], the “bioavailability indicated by the in vitro Caco2 study” value (“bioavailability indicated” below) (Caco-2 cells) is reported as “good bioavailability”, the inhibition at 10 µM (CYP2D6) is reported as 25.6% and the half-life [1] is reported as 11.3 h. For the same compound, the IC50 at 48 h [2] was 11100 nM, the Vd [3] was 1.29 L/kg and the inhibition at 10 µM (CYP3A4) was -15.4%. It also gave an IC50 [4] of 279 nM.

With `Cc1cn(-c2cc(CN3CCC[C@H](N)C3)cc(NC(=O)c3cc(-c4ccccc4)ccn3)c2)cn1` [compound 29, (S)—N-(3-((3-aminopiperidin-1-yl)methyl)-5-(4-methyl-1H-imidazol-1-yl)phenyl)-4-phenylpicolinamide] the “bioavailability indicated” value (Caco-2 cells) was “good bioavailability”, the inhibition at 10 µM (CYP2D6) was 69.8% and the “T1/2” value [1] was 6.29 h. For the same compound, the IC50 at 48 h [2] was 3230 nM, the “VSS” value [3] was 14.7 L/kg and the inhibition at 10 µM (CYP3A4) was 74%. The IC50 [4] was 320 nM.

With `Cc1cnc(C(=O)Nc2cc(CN3CCC(F)(F)[C@H](N)C3)cc(-c3ccc(C(F)(F)F)nc3)c2)cc1-c1ccccc1` [compound 131] the “bioavailability indicated” value (Caco-2 cells) was “good bioavailability”, the inhibition at 10 µM (CYP2D6) was 11.4% and the half-life [1] was 19 h. It also gave an IC50 at 48 h [2] of 109000 nM, a Vd [3] of 3.25 L/kg and an inhibition at 10 µM (CYP3A4) of 0.68%. It also gave an IC50 [4] of 547 nM.
